The source of these data is patent US10034886B2, “GLP-1 receptor modulators” (Celgene International II SÀRL, priority 2014, dated 2018).

Like-named read-outs stand apart in the source and are kept apart here. Bounds are passed on as bounds.

This experiment concerns the target T1, GLP-1R (Homo sapiens, UniProt P43220).
T1 construct: host or cells: GLP-1R CRE-bla CHO-K1 cells
Nature of the experiment: EC20 GLP-1(9-36) PAM cAMP assay: dose response of compound in the presence of fixed concentration of GLP-1(9-36). It counts as cell-based. Particulars: GLP-1R CRE-bla CHO-K1 cells, read-out: EC20 GLP-1(9-36) PAM EC50. The method, boiled down: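 GLP-1R CRE-bla CHO-K1 cells treated 30 min at 37 °C with 12-point compound dose response plus fixed EC20 GLP-1(9-36), with IBMX, in HBSS/HEPES/0.1% BSA pH 7.4. Total cAMP measured by luminescent detection against standard curve; EC50 and Emax from non-linear regression.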

Where [1] appears, read: compound dose response with fixed concentration of GLP-1(9-36).
The mark [2] stands for this setting: dose response of compound in presence of fixed concentration of GLP-1(9-36).

T1 sequence (P43220 24-463): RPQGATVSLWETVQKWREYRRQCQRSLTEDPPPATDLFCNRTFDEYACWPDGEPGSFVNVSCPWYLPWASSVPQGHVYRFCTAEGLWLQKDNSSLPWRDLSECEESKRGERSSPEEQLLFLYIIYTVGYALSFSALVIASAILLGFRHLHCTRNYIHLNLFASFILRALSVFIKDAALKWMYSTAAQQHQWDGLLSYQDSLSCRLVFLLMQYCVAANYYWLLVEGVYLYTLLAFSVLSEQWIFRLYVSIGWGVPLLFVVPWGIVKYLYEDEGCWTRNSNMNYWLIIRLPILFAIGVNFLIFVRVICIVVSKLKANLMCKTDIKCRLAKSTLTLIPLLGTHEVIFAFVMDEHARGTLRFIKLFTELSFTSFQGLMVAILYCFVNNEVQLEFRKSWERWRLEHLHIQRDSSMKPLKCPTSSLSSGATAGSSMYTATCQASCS
T1 sequence (P01275 100-127 partner limits assumed): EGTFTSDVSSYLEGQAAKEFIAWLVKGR

Take `CC(C)(C)c1ccc(C(=O)N[C@@H](Cc2ccc(-c3ncc(-c4ccc(-c5cccc(C#N)c5)cc4F)cn3)cc2)C(=O)N2CC(C(=O)O)C2)s1` [Compound 1202]: the concentration giving a half-maximal response (EC50) under setting [1] fell in the range of 5000 to 10000 nM.
For `CCCCCCCOc1ccc(-c2cnc(-c3ccc(C[C@H](NC(=O)c4ccc(C(C)(C)C)cc4)C(=O)NCc4ccc(C(=O)O)o4)cc3)nc2)cc1` [Compound 572], the EC50 under setting [2] fell in the range of 800 to 2500 nM.
Consider `C[C@@H](NC(=O)[C@H](Cc1ccc(-c2ncc(-c3ccc(C4CCC(F)(F)CC4)cc3)cn2)cc1)NC(=O)c1ccc(C(C)(C)C)s1)C(=O)O` [Compound 1142], for which the half-maximal effective concentration (EC50) under setting [2] is under 800 nM.
As to `CCCCCCCOc1ccc(-c2cnc(-c3ccc(C[C@H](NC(=O)c4ccc(C(C)(C)C)cc4)C(=O)NC(Cc4ccc(OC)cc4)C(=O)O)cc3)nc2)cc1` (stereo partly shown) [Compound 568], under setting [2], the EC50 is under 800 nM.
Regarding `CCCCCCCOc1ccc(-c2ncc(-c3ccc(C[C@H](NC(=O)c4ccc(C(C)(C)C)cc4)C(=O)O)cc3)nn2)cc1` [Compound 275], the EC50 under setting [2] was 800 to 2500 nM.
In the case of `Cc1ccc(/C=C/c2cnc(-c3ccc(C[C@H](NC(=O)c4ccc(C(C)(C)C)s4)C(=O)N[C@H](C)C(=O)O)cc3)nc2)cc1` [Compound 1052], under setting [2], the concentration for a half-maximal effect (EC50) was in the range of 2500 to 5000 nM.
For the compound `Cc1ccc(-c2ccc(-c3cnc(-c4ccc(C[C@H](NC(=O)c5ccc(C(C)(C)C)s5)C(=O)N5CC(C(=O)O)C5)cc4)nc3)c(F)c2)c(F)c1` [Compound 1204], the concentration for a half-maximal effect (EC50) under setting [1] is under 800 nM.
Still for that read-out and setting: the result for `CCCc1ccc(-c2ccc(-c3cnc(-c4ccc(C[C@H](NC(=O)c5ccc(OC(C)(C)C)cc5)C(=O)N5CC(C(=O)O)C5)cc4)nc3)c(F)c2)cc1` [Compound 1403] reads under 800 nM.
Turning to `CC(C)(C)c1ccc(C(=O)N[C@@H](Cc2ccc(-c3ncc(-c4ccc(OC5CCCC5)cc4)cn3)cc2)C(=O)N2CC(C(=O)O)C2)s1` [Compound 779], the EC50 under setting [2] fell in the range of 800 to 2500 nM.
As for `Cc1ccc(S(=O)(=O)N2CC=C(c3cnc(-c4ccc(C[C@H](NC(=O)c5ccc(C(C)(C)C)s5)C(=O)N[C@H](C)C(=O)O)cc4)nc3)CC2)cc1` [Compound 1338], the half-maximal effective concentration (EC50) under setting [1] lay in the range of 2500 to 5000 nM.
As to `CCCCCCCOc1ccc(-c2cnc(-c3ccc(C[C@H](NC(=O)c4ccc(CC(C)C)cc4)C(=O)N4CC[C@H](C(=O)O)C4)cc3)nc2)cc1` [Compound 851], under setting [2], the EC50 fell in the range of 2500 to 5000 nM.
As for `CCCCCCCOc1ccc(-c2cnc(-c3ccc(C[C@H](NC(=O)c4ccc(C(C)(C)C)cc4OCC)C(=O)N4CC(C(=O)O)C4)cc3)nc2)cc1` [Compound 1100], the 50% effective concentration (EC50) under setting [2] was in the range of 2500 to 5000 nM.
Take `CCCCCCCOc1ccc(-c2cnc(-c3ccc(C[C@H](NC(=O)c4ccc(C(C)(C)C)s4)C(=O)N[C@@H](CC(=O)NC)C(=O)O)cc3)nc2)cc1` [Compound 512]: the concentration giving a half-maximal response (EC50) under setting [2] was under 800 nM.
On to `CCCCCCCOc1ccc(-c2cnc(-c3ccc(C[C@H](NC(=O)c4ccc(C(C)(C)C)s4)C(=O)N[C@H](C)C(=O)O)cc3)nc2)c(C)c1` [Compound 790], for which, under setting [2], the EC50 lay within 800 to 2500 nM.
As for `CC(C)(C)c1ccc(C(=O)N[C@@H](Cc2ccc(-c3ncc(-c4ccc(-c5ccc(C(F)(F)F)cc5)cc4)cn3)cc2)C(=O)O)s1` [Compound 1355, (S)-2-(5-(tert-butyl)thiophene-2-carboxamido)-3-(4-(5-(4′-(trifluoromethyl)-[1,1′-biphenyl]-4-yl)pyrimidin-2-yl)phenyl)propanoic acid], under setting [1], the half-maximal effective concentration (EC50) was under 800 nM.
As for `CCC[C@H]1CC[C@H](C2CCN(c3cnc(-c4ccc(C[C@H](NC(=O)c5ccc(C(C)(C)C)s5)C(=O)N[C@@H](CCCNC(=N)N)C(=O)O)cc4)nc3)CC2)CC1` [Compound 1465], under setting [1], the EC50 is under 800 nM.
As to `Cc1ccc(/C=C/c2cnc(-c3ccc(C[C@H](NC(=O)c4ccc(C(C)(C)C)s4)C(=O)N4CC(C(=O)O)C4)cc3)nc2)cc1` [Compound 1091], the concentration giving a half-maximal response (EC50) under setting [2] lay in the range of 800 to 2500 nM.
`CCCCCCCOc1ccc(-c2cnc(-c3ccc(C[C@H](NC(=O)c4ccc(C(C)(C)C)s4)C(=O)NC(C(=O)O)C(O)c4ccc(C#N)cc4)cc3)nc2)cc1` (stereo partly shown) [Compound 911]: the EC50 under setting [2] lay in the range of 800 to 2500 nM.
On to `CCCc1ccc(N2CCN(c3cnc(-c4ccc(CC(NC(=O)c5ccc(C(C)(C)C)s5)C(=O)N5CC(C(=O)O)C5)cc4)nc3)C(=O)C2)cc1` (racemic) [Compound 1411], for which the EC50 under setting [1] lay in the range of 800 to 2500 nM.
As to `CCCCCCCOc1ccc(-c2cnc(-c3ccc(C[C@H](NC(=O)c4ccc(C(C)(C)C)s4)C(=O)NCCCN4CCN(C)CC4)cc3)nc2)cc1` [Compound 961], the EC50 under setting [2] was in the range of 2500 to 5000 nM.
Turning to `C[C@@H](NC(=O)[C@H](Cc1ccc(-c2ncc(-c3ccc(C4=CCC(F)(F)CC4)cc3)cn2)cc1)NC(=O)c1ccc(C(C)(C)C)s1)C(=O)O` [Compound 1151], the 50% effective concentration (EC50) under setting [2] is under 800 nM.
Take `CCCCCCCOc1ccc(-c2cnc(-c3ccc(C[C@H](NC(=O)c4ccc(C(C)(C)C)s4)C(=O)N[C@@H](CC(=O)O)C(=O)N4CCOCC4)cc3)nc2)cc1` [Compound 533]: under setting [2], the half-maximal effective concentration (EC50) was under 800 nM.
As to `CCC[C@H]1CC[C@H](c2ccc(-c3cnc(-c4ccc(C[C@H](NC(=O)c5ccc(C(C)(C)C)s5)C(=O)N5CC(C(=O)O)C5)cc4)nc3)cc2)CC1` [Compound 1343, 1-((S)-2-(5-(tert-butyl)thiophene-2-carboxamido)-3-(4-(5-(4-((1s,4r)-4-propylcyclohexyl)phenyl)pyrimidin-2-yl)phenyl)propanoyl)azetidine-3-carboxylic acid], the concentration giving a half-maximal response (EC50) under setting [1] was under 800 nM.
For `CCCCC[C@H]1CC[C@H](c2ccc(-c3cnc(-c4ccc(C[C@H](NC(=O)c5ccc(C(C)(C)C)s5)C(=O)N[C@H](C)C(=O)O)cc4)nc3)cc2)CC1` [Compound 1310], the 50% effective concentration (EC50) under setting [1] was in the range of 2500 to 5000 nM.
Consider `CCC[C@H]1CC[C@H](C2CCN(c3cnc(-c4ccc(CC(NC(=O)c5ccc(C(C)(C)C)s5)C(=O)NS(=O)(=O)CCC5CCC5)cc4)nc3)CC2)CC1` (stereo partly shown) [Compound 1541], for which the 50% effective concentration (EC50) under setting [1] fell in the range of 800 to 2500 nM.
As for `CCCCCCCOc1ccc(-c2cnc(-c3ccc(C[C@H](NC(=O)c4ccc(C(C)(C)C)cc4)C(=O)N[C@@H](CC(=O)NC)C(=O)O)cc3)nc2)cc1` [Compound 477, N^2—((S)-2-(4-(tert-butyl)benzamido)-3-(4-(5-(4-(heptyloxy)phenyl)pyrimidin-2-yl)phenyl)propanoyl)-N^4-methyl-L-asparagine], the EC50 under setting [2] is under 800 nM.
As to `CC(C)(C)c1ccc(C(=O)N[C@@H](Cc2ccc(-c3ncc(-c4ccc(-c5cccc(OC(F)(F)F)c5)cc4F)cn3)cc2)C(=O)N2CC(C(=O)O)C2)s1` [Compound 1215], the concentration for a half-maximal effect (EC50) under setting [1] is under 800 nM.
`CCCCc1ccc(-c2ccc(-c3cnc(-c4ccc(C[C@H](NC(=O)c5ccc(C(C)(C)C)s5)C(=O)N5CC(C(=O)O)C5)cc4)nc3)c(F)c2)cc1` [Compound 1226, (S)-1-(2-(5-(tert-butyl)thiophene-2-carboxamido)-3-(4-(5-(4′-butyl-3-fluoro-[1,1′-biphenyl]-4-yl)pyrimidin-2-yl)phenyl)propanoyl)azetidine-3-carboxylic acid]: under setting [1], the EC50 is under 800 nM.
`CCCCc1ccc(-c2cnc(-c3ccc(C[C@H](NC(=O)c4ccc(C(C)(C)C)cc4)C(=O)NCCC(=O)O)cc3)nc2)cc1` [Compound 677]: the 50% effective concentration (EC50) under setting [2] lay in the range of 2500 to 5000 nM.
Same read-out and setting: next, `C[C@@H](NC(=O)[C@H](Cc1ccc(-c2ncc(-c3ccc(OCc4ccccc4)c(F)c3)cn2)cc1)NC(=O)c1ccc(C(C)(C)C)s1)C(=O)O` [Compound 994]: 800 to 2500 nM.
On to `CCCCCCCOc1ccc(-c2cnc(-c3ccc(C[C@H](NC(=O)c4ccc(C(C)(C)C)s4)C(=O)N[C@H](CN)C(=O)O)cc3)nc2)cc1` [Compound 392], for which the EC50 under setting [2] lay in the range of 2500 to 5000 nM.
On to `CCCCCCCOc1ccc(-c2cnc(-c3ccc(C[C@H](NC(=O)c4ccc(C5CC5)cc4)C(=O)N4CC(C(=O)O)C4)cc3)nc2)cc1` [Compound 1111], for which the EC50 under setting [2] was in the range of 800 to 2500 nM.
As to `CCCCCCCOc1ccc(-c2cnc(-c3ccc(C[C@H](NC(=O)c4ccc(C(C)(C)C)s4)C(=O)NC(Cc4c[nH]c5ncccc45)C(=O)O)cc3)nc2)cc1` (stereo partly shown) [Compound 626], the EC50 under setting [2] was under 800 nM.
Consider `CCCCCCCOc1ccc(-c2cnc(-c3ccc(C[C@H](NC(=O)c4ccc(C(C)(C)C)cc4)C(=O)NCC(=O)NCC(=O)O)cc3)nc2)cc1` [Compound 444], for which the EC50 under setting [2] is under 800 nM.
For the compound `CCCCCCCOc1ccc(-c2cnc(-c3ccc(C[C@H](NC(=O)c4ccc(C(C)(C)C)s4)C(=O)NC(C(=O)O)c4c(C)n[nH]c4C)cc3)nc2)cc1` (stereo partly shown) [Compound 598], the 50% effective concentration (EC50) under setting [2] is under 800 nM.
The same measure, in the same setting: next, `CCCCCCCOc1ccc(-c2cnc(-c3ccc(C[C@H](NC(=O)c4ccc(C(C)(C)C)s4)C(=O)N[C@@H](Cn4cccn4)C(=O)O)cc3)nc2)cc1` [Compound 594]: under 800 nM.
Take `CCCOc1ccc(-c2ccc(-c3cnc(-c4ccc(C[C@H](NC(=O)c5ccc(C(C)(C)C)s5)C(=O)N[C@H](C)C(=O)O)cc4)nc3)cc2)cc1` [Compound 1288]: the concentration giving a half-maximal response (EC50) under setting [1] was 800 to 2500 nM.
As for `CCCCCCCOc1ccc(-c2cnc(-c3ccc(C[C@H](NC(=O)c4ccc(C(C)(C)C)s4)C(=O)N4CC(C(=O)O)CC4C)cc3)nc2)cc1` (stereo partly shown) [Compound 892], the 50% effective concentration (EC50) under setting [2] was under 800 nM.
Same read-out and setting: the result for `CCCCCCCOc1ccc(-c2cnc(-c3ccc(C[C@H](NC(=O)c4ccc(C(C)(C)C)s4)C(=O)NS(=O)(=O)CC)cc3)nc2)cc1` [Compound 420] reads under 800 nM; that for `CCCCCCCOc1ccc(-c2cnc(-c3ccc(C[C@H](NC(=O)c4ccc(C(C)(C)C)cc4)C(=O)NC(CCCC)C(=O)O)cc3)nc2)cc1` (stereo partly shown) [Compound 547], 800 to 2500 nM; that for `CCCCOc1ccc(-c2cnc(-c3ccc(C[C@H](NC(=O)c4ccc(C(C)(C)C)cc4)C(=O)NCCC(=O)O)cc3)nc2)cc1` [Compound 709], 800 to 2500 nM.
On the same count and under the same terms, next, `CCCCCCCOc1ccc(-c2cnc(-c3ccc(C[C@H](NC(=O)c4ccc(C(C)(C)C)cc4)C(=O)NCCC(=O)O)cc3)nc2)cc1F` [Compound 697]: 2500 to 5000 nM.
As for `CCCCCCCOc1ccc(-c2cnc(-c3ccc(C[C@H](NC(=O)c4ccc(C(C)(C)C)cc4OCC)C(=O)N[C@H](C)C(=O)O)cc3)nc2)cc1` [Compound 836], the concentration giving a half-maximal response (EC50) under setting [2] lay in the range of 2500 to 5000 nM.
